Results published in PubChem BioAssay AID1963974 (Molecular Pharmacology Branch, DTP, NCI, 2024).

Test system: 648629-189-R-J1-PDC spheroids with HUVEC/MSC, viability
Test: Anticancer human tumor 648629-189-R-J1-PDC patient-derived bladder carcinoma cell line growth inhibition [PI3K]
Conditions: for IC50: curve of first compound; for viability, T/C: stronger effect = lower value
From the text: Combinatorial screen of targeted agents with the PI3K inhibitors inavolisib, alpelisib, duvelisib, and copanlisib in multi-cell type tumor spheroids
A high-throughput screen of multi-cell type tumor spheroids was designed to identify active combinations of targeted small molecules and PI3K pathway inhibitors. Complex spheroids include a stromal component modeled by human endothelial cells (HUVEC) and fibroblasts modeled by human mesenchymal stem cells (MSCs). The concentration ranges selected for each drug and investigational agent were based upon clinically achievable concentrations if the clinical Cmax of the agent was known.
Compounds. The drugs and investigational agents: inavolisib (NSC800729), alpelisib (NSC765974), duvelisib (NSC772469), copanlisib (NSC816437), ipatasertib (NSC767898), afuresertib (NSC778305), talazoparib (NSC767125), sapanisertib (NSC764658), selumetinib (NSC741078), tovorafenib (DAY101, NSC766906), vemurafenib (NSC761431), ravoxertinib (NSC781343), sotorasib (NSC818433), MRTX1133 (NSC 836407), abemaciclib (NSC 768073), palbociclib (NSC758247), venetoclax (NSC 766270), SY5609 (NSC837396), enzalutamide (NSC755605), and darolutamide (NSC825331), were obtained from the National Cancer Institute (NCI) Developmental Therapeutics Program Chemical Repository. The FDA-approved anticancer drug set is available from the NCI Developmental Therapeutics Program. […] The stock solutions were prepared in dimethyl sulfoxide (DMSO, Sigma-Aldrich, St. Louis, MO, cat. D2650) at 800-fold the tested concentration and stored at -70 degrees C prior to their use. All drugs and investigational agents were tested over a range starting from a high concentration at or near the clinical Cmax and decreasing in half-log increments. If the clinical Cmax for an agent had not been determined, the highest concentration tested was 10 microM.
Cell Culture. All cells were maintained in an incubator at 37 degrees C and 5% CO2 with 95% humidity. The PDC lines were cultured according to standard operating procedures established by the NCI PDMR (https://pdmr.cancer.gov/sops/default.htm). All PDCs were thawed and cultured in Matrigel-coated flasks prepared with a working solution of 1X Ham's F-12 nutrient mix, without supplementation (Invitrogen, Waltham, MA, cat. 11765054), 100 U/mL penicillin-streptomycin (Invitrogen, cat. 15140122), and 2.5% Matrigel (Corning Inc., Corning, NY, cat. 354248) for the first three passages. The 354836-022-R-J1-PDC, 475296-252-R-J1-PDC, and 997726-040-R-J2-PDC lines were cultured in 6A media, which includes advanced DMEM/F-12 (Thermo Fisher Scientific, cat. 12634028), 10 mM HEPES (Thermo Fisher Scientific, cat. 15630080), 1X GlutaMAX supplement (Thermo Fisher Scientific, cat. 35050061), 0.1 mg/mL primocin (InvivoGen, San Diego, CA, cat. ant-pm-2), 10% defined fetal bovine serum, heat inactivated (HyClone Laboratories Inc., Logan, UT, cat. SH30070.03HI), 50% L-WRN conditioned media (ATCC, cat. CRL-3276), 1.25 mM N-Acetyl-L-cysteine (Sigma-Aldrich, cat. A9165), 10 mM nicotinamide (Sigma-Aldrich, cat. N0636), 1X B-27 supplement (Thermo Fisher Scientific, cat. 17504044), 1X N-2 supplement (Thermo Fisher Scientific, cat. 17502048), and 10 microM Y-27632 dihydrochloride (Tocris Bioscience, Bristol, United Kingdom, cat. 1254). The 624824-186-R-J2-PDC line was cultured in 6C/Colon 1B media, which includes all 6A media components plus 50 ng/mL human EGF recombinant protein (Thermo Fisher Scientific, cat. PHG0311). […]
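Note: spheroids exposed to agents for seven days before reading.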
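Throughout, for viability, T/C: percent of vehicle control luminescence where 100% = DMSO treated spheroids.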

## CNC(=O)c1ccc(N2C(=S)N(c3ccc(C#N)c(C(F)(F)F)c3)C(=O)C2(C)C)cc1F + CC(Nc1ccc2c(c1)OCCn1cc(N3C(=O)OCC3C(F)F)nc1-2)C(N)=O
Second compound 0.00316 µM
  IC50: > 10 µM
Second compound 0.01 µM
  IC50: > 10 µM
Second compound 0.0316 µM
  IC50: > 10 µM
Second compound 0.1 µM
  IC50: > 10 µM
Second compound 0.316 µM
  IC50: > 10 µM
Second compound 1 µM
  IC50: > 10 µM
Second compound 0.00316 µM, first compound 0.0316 µM
  viability, T/C: 107%
Second compound 0.00316 µM, first compound 0.1 µM
  viability, T/C: 96.5%
Second compound 0.00316 µM, first compound 0.316 µM
  viability, T/C: 107%
Second compound 0.00316 µM, first compound 1 µM
  viability, T/C: 97.6%
Second compound 0.00316 µM, first compound 3.16 µM
  viability, T/C: 110%
Second compound 0.00316 µM, first compound 10 µM
  viability, T/C: 83.4%
Second compound 0.01 µM, first compound 0.0316 µM
  viability, T/C: 99.6%
Second compound 0.01 µM, first compound 0.1 µM
  viability, T/C: 109%
Second compound 0.01 µM, first compound 0.316 µM
  viability, T/C: 97.2%
Second compound 0.01 µM, first compound 1 µM
  viability, T/C: 98.1%
Second compound 0.01 µM, first compound 3.16 µM
  viability, T/C: 94.8%
Second compound 0.01 µM, first compound 10 µM
  viability, T/C: 87.1%
Second compound 0.0316 µM, first compound 0.0316 µM
  viability, T/C: 103%
Second compound 0.0316 µM, first compound 0.1 µM
  viability, T/C: 107%
Second compound 0.0316 µM, first compound 0.316 µM
  viability, T/C: 102%
Second compound 0.0316 µM, first compound 1 µM
  viability, T/C: 101%
Second compound 0.0316 µM, first compound 3.16 µM
  viability, T/C: 90.5%
Second compound 0.0316 µM, first compound 10 µM
  viability, T/C: 78.5%
Second compound 0.1 µM, first compound 0.0316 µM
  viability, T/C: 93%
Second compound 0.1 µM, first compound 0.1 µM
  viability, T/C: 94.8%
Second compound 0.1 µM, first compound 0.316 µM
  viability, T/C: 102%
Second compound 0.1 µM, first compound 1 µM
  viability, T/C: 102%
Second compound 0.1 µM, first compound 3.16 µM
  viability, T/C: 88%
Second compound 0.1 µM, first compound 10 µM
  viability, T/C: 79.2%
Second compound 0.316 µM, first compound 0.0316 µM
  viability, T/C: 83.4%
Second compound 0.316 µM, first compound 0.1 µM
  viability, T/C: 79.1%
Second compound 0.316 µM, first compound 0.316 µM
  viability, T/C: 93%
Second compound 0.316 µM, first compound 1 µM
  viability, T/C: 75.5%
Second compound 0.316 µM, first compound 3.16 µM
  viability, T/C: 84.3%
Second compound 0.316 µM, first compound 10 µM
  viability, T/C: 68%
Second compound 1 µM, first compound 0.0316 µM
  viability, T/C: 69.7%
Second compound 1 µM, first compound 0.1 µM
  viability, T/C: 67.5%
Second compound 1 µM, first compound 0.316 µM
  viability, T/C: 72.1%
Second compound 1 µM, first compound 1 µM
  viability, T/C: 63.7%
Second compound 1 µM, first compound 3.16 µM
  viability, T/C: 75.4%
Second compound 1 µM, first compound 10 µM
  viability, T/C: 68%
